Measurements as given in US8541603B2, “Substituted cyclopentanes or cyclopentanones as therapeutic agents” (Allergan, Inc., priority 2008, dated 2013).

System: lashes and adjacent hairs of the eyelids
Assay: Observation of lashes of glaucoma patients treated with bimatoprost in only one eye
Type: in vivo
Conditions: glaucoma patient treated in one eye only
From the text: In the course of treating patients having glaucoma, treatment may only be appropriate in one eye. […] The lash appearance on the lids of the treated eyes would have appeared quite attractive if it represented a bilateral phenomenon. As a result of its asymmetric nature, the long lashes on one side could be construed as disturbing from a cosmetic standpoint. A systemic examination was preformed as a result of the asymmetric phenomenon. It soon became apparent that this altered appearance was not an isolated finding. […] Definite differences could be identified to varying degrees in the lashes and adjacent hairs of all patients who were taking the drug on a unilateral basis for longer than 6 months.
The changes in the lashes were apparent on gross inspection in several patients once attention was focused on the issue. In those with light colored hair and lashes, the differences were only seen easily with the aid of the high magnification and lighting capabilities of the slit lamp biomicroscope. In the course of glaucoma follow-up examination, attention is generally immediately focused on the eye itself. As a result of the high power magnification needed only one eye is seen at a time and the eye is seen at a high enough power that the lashes are not in focus. […]

## CCNC(=O)CCC/C=C\C[C@@H]1[C@@H](/C=C/[C@@H](O)CCc2ccccc2)[C@H](O)C[C@@H]1O [bimatoprost]
  lashes in the treated eye versus the non-treated eye: longer, thicker, and fuller
